Measured values: patent EP4567031A1, “HPK1 INHIBITOR, PREPARATION METHOD THEREFOR, AND USE THEREOF” (Beijing Earthwise Technology Co., Ltd., priority 2022, dated 2024)

Legend:
Phospho-SLP-76 (Ser376) = Phospho-SLP-76 (Ser376) HTRF assay in Jurkat E6-1 cells; assay type: cell-based; conditions: Homo sapiens, compound 4 hours, then anti-CD3 antibody 20 minutes, read-out: pSLP76, IC50
Description: A compound was dissolved in DMSO to 10 mM, and then diluted three-fold with DMSO to 10 dosages in a 96-well plate. Then, 3 µL of the diluted compound sample was transferred to a 96-well plate with 97 µL of cell culture medium, and the plate was shaken for 5 minutes. According to the experimental design diagram, 7.5 µL of the diluted compound sample was transferred to a cell plate. Final concentrations of the compound in this assay were 10000.00, 3333.33, 1111.11, 370.37, 123.46, 41.15, 13.72, 4.57, 1.52 and 0.51 nM.
In this assay, the density of Jurkat E6-1 cells was maintained between 3*10^5 to 3*10^6 cells/mL. The cell culture was replaced with fresh culture medium every 2 to 3 days (depending on the cell density).
30 µL of Jurkat E6-1 (300,000 cells) was added to a 96-well plate and incubated in a 37 °C incubator for 1 hour. Then, according to the experimental design diagram, compounds (6×, 7.5 µL) were added to treat the cells for 4 hours, respectively. After 4 hours, purified anti-human anti-CD3 antibodies (6×, 7.5 µL) were added to treat the cells for 20 minutes. After 20 minutes, 15 µL of cell lysis buffer (4×) was added, and the cells were lysed at 25 °C with shaking (250 rpm) for 1 hour. Then, according to the experimental design diagram, 16 µL of cell lysate was transferred to a 384-well plate using a pipette. After the transfer, 4 µL of antibody detection mixture was added. After being placed at room temperature overnight, the plate was read by EnVision multi-function microplate reader to read the FRET signal (the ratio of HTRF 665/615 was calculated from the readings at 665 nm and 615 nm).
The ratio of the signal at 665 nm to the signal at 615 nm was converted to the percentage of inhibition. Inhibition % = (maximum value - sample value) / (maximum value - minimum value)×100. The minimum value refers to the signal value of a well without anti-CD3 antibody stimulation during the treatment of cells, and the maximum value refers to the signal value of a well with anti-CD3 antibody stimulation but without the compound during the treatment of cells. IC50 values were calculated by XLFit (version 5.3.1.3) in excel. Equation: Y = Bottom + (Top-Bottom) / (1 + (IC50/X) ^ HillSlope). Table 4. Results of cellular activity of the compounds

HPK1 = HPK1 (Homo sapiens, UniProt Q92918); experiment: HPK1 HTRF kinase assay; assay type: biochemical; conditions: 1000 µM ATP; 50 nM HPK1; STK1 substrate; read-out: HPK1, IC50
HPK1, sequence (Q92918 whole entry, species assumed): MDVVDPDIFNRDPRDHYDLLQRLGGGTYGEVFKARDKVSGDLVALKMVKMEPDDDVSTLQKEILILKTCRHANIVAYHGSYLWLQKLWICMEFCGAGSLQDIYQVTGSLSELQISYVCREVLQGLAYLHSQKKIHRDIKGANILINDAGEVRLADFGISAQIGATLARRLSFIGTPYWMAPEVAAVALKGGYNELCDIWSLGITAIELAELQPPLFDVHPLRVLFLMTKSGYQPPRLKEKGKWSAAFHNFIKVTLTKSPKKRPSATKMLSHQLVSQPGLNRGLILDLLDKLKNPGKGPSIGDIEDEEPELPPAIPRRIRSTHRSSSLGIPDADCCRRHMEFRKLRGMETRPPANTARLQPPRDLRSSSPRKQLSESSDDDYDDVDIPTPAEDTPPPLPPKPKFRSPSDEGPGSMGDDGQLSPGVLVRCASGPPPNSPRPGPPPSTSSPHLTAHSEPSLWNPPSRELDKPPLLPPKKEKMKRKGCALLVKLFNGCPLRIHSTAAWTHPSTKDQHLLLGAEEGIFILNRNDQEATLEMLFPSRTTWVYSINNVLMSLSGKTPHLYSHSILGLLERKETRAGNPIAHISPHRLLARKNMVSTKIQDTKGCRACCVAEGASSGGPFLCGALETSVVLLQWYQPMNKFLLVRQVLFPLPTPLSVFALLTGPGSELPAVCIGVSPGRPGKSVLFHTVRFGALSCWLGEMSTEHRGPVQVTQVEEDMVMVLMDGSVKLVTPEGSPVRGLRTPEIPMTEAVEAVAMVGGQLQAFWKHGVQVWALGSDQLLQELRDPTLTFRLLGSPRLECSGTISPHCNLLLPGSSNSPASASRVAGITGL
Description: The reaction was initiated by adding 50 nM HPK1. After 120 minutes of reaction, the assay was terminated by adding 10 µL of Detection Mix.
The ratio of the signal at 665 nm to the signal at 615 nm was converted to the percentage of inhibition. Inhibition % = (maximum value - sample value) / (maximum value - minimum value)×100. The minimum value refers to the value measured in a well without enzyme but with DMSO and substrate, and the maximum value refers to the value measured in a well with DMSO, enzyme and substrate. IC50 values were calculated by XLFit (version 5.3.1.3) in Excel. Equation: Y = Bottom + (Top - Bottom) / (1 + (IC50/X) ^ HillSlope).

human Pan T cells = experiment: Human Pan T cell IL-2 ELISA; assay type: cell-based; conditions: Homo sapiens, T-cell, 48 h, Anti-CD3 and Anti-CD28, supernatant IL-2 ELISA, read-out: IL-2 release, EC50
Method in brief: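 Human Pan T cells (1×10^6 cells/ml) stimulated with plate-bound anti-CD3 plus anti-CD28 and treated 48 h with compound at 9 final concentrations, 39.063–10000 nM. Supernatant IL-2 by ELISA, expressed as fold over DMSO wells; EC50 from four-parameter logistic fit.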

IC50 (Phospho-SLP-76 (Ser376)) [nM]	IC50 (HPK1) [nM]	EC50 (human Pan T cells) [nM]	Structure (SMILES)
487			Cc1ccc2c(-c3cc4c(c5c(=O)[nH]ccc35)Nc3ccc(N5CCOC(C(C)(C)O)C5)cc3C4(C)C)cnn2c1 (stereo not drawn) [Example 7]
	10.1	27.9	CC1(C)c2cc(-c3cnn4cccnc34)c3c(c2Nc2ccc(N4CCOCC4)nc21)C(=O)NC3 [Example 29]
	16.4	12.3	Cn1ccc(-c2cc3c(c4c2CNC4=O)Nc2ccc(N4CCOC(C(C)(C)O)C4)cc2C3(C)C)cc1=O (stereo not drawn) [Example 32]
	11.5	2.41	CC1(C)c2cc(N3CCOCC3)ccc2Nc2c1cc(-c1cnc3c(C#N)cccn13)c1c2C(=O)NC1 [Example 34]
	12.8	14.5	CC1(C)c2cc(N3CCOCC3)ccc2Nc2c1cc(-c1cnn3ccncc13)c1c2C(=O)NC1 [Example 35]
	11.8	6.33	CC1(C)c2cc(N3CCOCC3)ccc2Nc2c1cc(-c1cnn3c1CCCC3)c1c2C(=O)NC1 [Example 36]
	7.98	2.27	CC1(C)c2cc(N3CCOCC3)ccc2Nc2c1cc(-c1cnn3ccccc13)c1c2C(=O)NC1 [Example 37]
	12.3	4.7	Cn1ccc2c(-c3cc4c(c5c3CNC5=O)Nc3ccc(N5CCOCC5)cc3C4(C)C)cncc21 [Example 38]
	39	16.8	CC1(C)c2cc(N3CCOCC3)ccc2Nc2c1cc(-c1nnc3c(C#N)cccn13)c1c2C(=O)NC1 [Example 39]
	12.3	5.07	Cc1ccn2c(-c3cc4c(c5c3CNC5=O)Nc3ccc(N5CCC(O)CC5)cc3C4(C)C)cnc2c1F [Example 40]
	10.3	7.73	Cc1ccn2c(-c3cc4c(c5c3CNC5=O)Nc3ccc(N5CCOC(CO)C5)cc3C4(C)C)cnc2c1F (stereo not drawn) [Example 46]
	8.71	19	CN1CCN(Cc2ccc3c(c2)C(C)(C)c2cc(-c4cnn5cccnc45)c4c(c2N3)C(=O)NC4)CC1 [Example 50]
	11.4	58.8	CC1(C)c2cc(CN3CCOCC3)ccc2Nc2c1cc(-c1cnn3cccnc13)c1c2C(=O)NC1 [Example 51]
	8.2	9.08	CC1(C)c2cc(C3COCCN3)ccc2Nc2c1cc(-c1cnn3cccnc13)c1c2C(=O)NC1 (stereo not drawn) [Example 52]
	7.97	5.54	CC1(C)c2cc(N3CCOCC3)ccc2Nc2c1cc(-c1cnn3cnccc13)c1c2C(=O)NC1 [Example 53]
	3.81	6.53	Cc1ccnn2c(-c3cc4c(c5c3CNC5=O)Nc3ccc(N5CCOCC5)cc3C4(C)C)cnc12 [Example 54]
	7.55	40.3	CN1CCN(c2ccc3c(c2)C(C)(C)c2cc(-c4cnn5cccnc45)c4c(c2N3)C(=O)NC4)C(=O)C1 [Example 55]
	11.5	28	CC1(C)c2cc(NC(=O)CC3CC3)ccc2Nc2c1cc(-c1cnn3cccnc13)c1c2C(=O)NC1 [Example 56]
	11	27.1	CC1(C)c2cc(CN3CCNCC3)ccc2Nc2c1cc(-c1cnn3cccnc13)c1c2C(=O)NC1 [Example 57]
	7.78	6.97	CC1(C)c2cc(N3CCOCC3)c(F)cc2Nc2c1cc(-c1cnn3cccnc13)c1c2C(=O)NC1 [Example 59]
	14.4	17.9	Cc1ccnc2c(-c3cc4c(c5c3CNC5=O)Nc3ccc(N5CCOCC5)cc3C4(C)C)cnn12 [Example 60]
	8.55	17.7	Cc1cnc2c(-c3cc4c(c5c3CNC5=O)Nc3ccc(N5CCOCC5)cc3C4(C)C)cnn2c1 [Example 61]
	6.08	3.02	CC1(C)c2cc(N3CCOCC3)ccc2Nc2c1cc(-c1cnc3cc(F)ccn13)c1c2C(=O)NC1 [Example 62]

IC50 (Phospho-SLP-76 (Ser376)) [nM]	IC50 (HPK1) [nM]	EC50 (human Pan T cells) [nM]	Structure (SMILES)
	5.48	4.98	COc1nccn2c(-c3cc4c(c5c3CNC5=O)Nc3ccc(N5CCOCC5)cc3C4(C)C)cnc12 [Example 63]
	5.28	3.51	CC1(C)c2cc(N3CCOCC3)ccc2Nc2c1cc(-c1cnc3c(F)cccn13)c1c2C(=O)NC1 [Example 64]
	8.59	28	CC1CCn2c(-c3cc4c(c5c3CNC5=O)Nc3ccc(N5CCOCC5)cc3C4(C)C)cnc2C1 (stereo not drawn) [Example 65]
	3.93	14.4	Cn1cccc(Nc2cc3c(c4c2CNC4=O)Nc2ccc(N4CCOCC4)cc2C3(C)C)c1=O [Example 67]
	12	21.1	Cn1c(-c2cc3c(c4c2CNC4=O)Nc2ccc(N4CCOCC4)cc2C3(C)C)cnc1C1CC1 [Example 68]
	12.7	23.4	CC1(C)c2cc(N3CCOCC3)ccc2Nc2c1cc(-c1cnn3c1CNCC3)c1c2C(=O)NC1 [Example 70]
	11	68.6	CC1(C)c2cc(N3CCOCC3)ccc2Nc2c1cc(-c1nnc3n1CCCC3)c1c2C(=O)NC1 [Example 71]
	2.13	18.1	CC1(C)c2cc(CN3CCN(CC4CC4)CC3)ccc2Nc2c1cc(-c1cnn3cccnc13)c1c2C(=O)NC1 [Example 72]
	7.87	28.9	CC1(C)c2cc(N3CCOCC3)c(C(F)F)cc2Nc2c1cc(-c1cnn3cccnc13)c1c2C(=O)NC1 [Example 73]
	49.7	100	CC1(C)c2cc(N3CCOCC3)ccc2Nc2c1cc(-c1cncc(OCC3COC3)c1)c1c2C(=O)NC1 [Example 74]
	4.55	1.41	COc1cccn2c(-c3cc4c(c5c3CNC5=O)Nc3ccc(N5CCOCC5)cc3C4(C)C)nnc12 [Example 75]
	8.73	50.4	COc1cncc2c(-c3cc4c(c5c3CNC5=O)Nc3ccc(N5CCOCC5)cc3C4(C)C)cnn12 [Example 76]
	4.56	13.6	CC1(C)c2cc(N3CCOCC3)ccc2Nc2c1cc(-c1cnn3c1OCCC3)c1c2C(=O)NC1 [Example 77]
	35	75.5	CN1CCn2c(-c3cc4c(c5c3CNC5=O)Nc3ccc(N5CCOCC5)cc3C4(C)C)cnc2C1 [Example 78]
	6.36	19.5	CC1(C)c2cc(N3CCOCC3)ccc2Nc2c1cc(-c1cnc3n1CCOC3)c1c2C(=O)NC1 [Example 79]
	9.18	86.6	CC1(C)c2cc(N3CCOCC3)ccc2Nc2c1cc(-n1cnc3c1CCCC3)c1c2C(=O)NC1 [Example 80]
	6.31	35.8	Cc1cc(-c2cc3c(c4c2CNC4=O)Nc2ccc(N4CCOCC4)cc2C3(C)C)cc(=O)[nH]1 [Example 81]
	6.62	27	CNc1cncc(-c2cc3c(c4c2CNC4=O)Nc2ccc(N4CCOCC4)cc2C3(C)C)c1 [Example 82]
	5.8	17.4	CC1(C)c2cc(C3CCNCC3)ccc2Nc2c1cc(-c1cnn3cccnc13)c1c2C(=O)NC1 [Example 83]
	8.63	65.9	CN1CCn2c(-c3cc4c(c5c3CNC5=O)Nc3ccc(N5CCOCC5)cc3C4(C)C)cnc2C1=O [Example 84]
	7.95	11.5	CC1(C)c2cc(N3CCOCC3)ccc2Nc2c1cc(-c1cnc3n1CCC3)c1c2C(=O)NC1 [Example 86]
	7.88	8.97	Cc1ncc(-c2cc3c(c4c2CNC4=O)Nc2ccc(N4CCOCC4)cc2C3(C)C)n1C [Example 87]
	7.64	68.2	CC1(C)c2cc(NC(=O)COCCO)ccc2Nc2c1cc(-c1cnn3cccnc13)c1c2C(=O)NC1 [Example 92]

Structure (SMILES)	IC50 (Phospho-SLP-76 (Ser376)) [nM]	IC50 (HPK1) [nM]	EC50 (human Pan T cells) [nM]
COC1CCCn2c(-c3cc4c(c5c3CNC5=O)Nc3ccc(N5CCOCC5)cc3C4(C)C)cnc21 (stereo not drawn) [Example 69]		6.86	11.4
